According to patent EP0326640B1, “(1R,5S,6S)-2-substituted thio-6 (R)-1-hydroxyethyl -1-methyl-carbapenem - carboxylic acid derivatives” (LEDERLE (JAPAN) LTD., priority 1987, dated 1989):
≈ marks a conversion by molar mass, not a printed value.

Legend:
[1] = tested on: P. aeruginosa resistant strains; assay: Sensitivity test against clinical isolates, agar plate dilution method; type: cell-based
Experimental: The test procedures were based on the agar plate dilution method in accordance with the standard method of The Japanese Chemotherapy Society. The minimum inhibitory concentration (MIC) was determined in substantially the same manner as the test procedures II above using the 54 strains of P. aeruginosa having an anti-Pseudomonas resistance.

Salmonella typhi 901 = assay: Antibacterial test, agar plate dilution method (MIC), standard strains; type: cell-based; conditions: MH agar, 37°C, 18 hours
Experimental: (§1) The antibacterial activities were tested by an agar plate dilution method in accordance with the standard method of The Japanese Chemotherapy Society [Chemotherapy, Vol. 29, 76-79 (1981)].
(§2) A Mueller-Hinton (MH) agar liquid medium of a test microorganism was cultured overnight at 37°C and the resultant culture medium was diluted with a buffered saline gelatin (BSG) solution to contain approximately 10⁶ cells of the test microorganisms per milliliter, and then the diluted solution was inoculated with a microplanter at the rate of approximately 5 microliters on a MH agar medium containing a test compound. This medium was then incubated at 37°C for 18 hours. The minimum inhibitory concentration (MIC) is determined as a minimum concentration in which no test microorganism could grow. It is noted here that the test organisms used were all standard strains.

[2] = tested on: Serratia marcescens IAM1184; assay: as above; type: cell-based; conditions: MH agar, 37°C, 18 hours
Experimental: as §1, §2

[3] = tested on: Morganella morganii IFO3848; assay: as above; type: cell-based; conditions: MH agar, 37°C, 18 hours
Experimental: as §1, §2

Proteus vulgaris OX-19 = assay: as above; type: cell-based; conditions: Proteus vulgaris OX-19; MH agar, 37°C, 18 hours
Experimental: as §1, §2

[4] = tested on: Salmonella paratyphi 1015; assay: as above; type: cell-based; conditions: MH agar, 37°C, 18 hours
Experimental: as §1, §2

[5] = tested on: Providencia rettgeri IFO 3850; assay: as above; type: cell-based; conditions: MH agar, 37°C, 18 hours
Experimental: as §1, §2

[6] = tested on: Pseudomonas aeruginosa IFO 3445; assay: as above; type: cell-based; conditions: MH agar, 37°C, 18 hours
Experimental: as §1, §2

[7] = tested on: Pseudomanas aeruginosa NCTC 10940; assay: as above; type: cell-based; conditions: MH agar, 37°C, 18 hours
Experimental: as §1, §2

[8] = tested on: Proteus mirabilis IFO3849; assay: as above; type: cell-based; conditions: Proteus mirabilis IFO3849; MH agar, 37°C, 18 hours
Experimental: as §1, §2

[9] = tested on: Salmonella enteritidis G14; assay: as above; type: cell-based; conditions: Salmonella enterica, MH agar, 37°C, 18 hours, read-out: MIC
Experimental: as §1, §2

[10] = tested on: Salmonella schottmuelleri 8006; assay: as above; type: cell-based; conditions: MH agar, 37°C, 18 hours
Experimental: as §1, §2

Proteus vulgaris HX-19 = assay: as above; type: cell-based; conditions: Proteus vulgaris HX-19; MH agar, 37°C, 18 hours
Experimental: as §1, §2

[11] = tested on: male mice of CrjCD(SD) strain; assay: Toxicity, intravenous administration to mice, observation for one week; type: in vivo; conditions: 500 mg/kg administered intravenously; group of 10 male mice
Experimental: Toxicological studies were carried out using a group of 10 male mice of CrjCD(SD) strain weighing from 20 to 23 grams. A solution containing the crystalline carbapenem compound (20) of the present invention obtained by Example 11 was administered intravenously to the mice and subjected to observations for one week.

Proteus vulgaris GN 7919 = assay: Antibacterial activity against clinically isolated β-lactamase (cephalosporinase) producing strains (MIC); type: cell-based; conditions: Proteus vulgaris GN 7919; cephalosporinase producing strain, SDA, 18 to 20 hours
Experimental: (§3) The antibacterial activities against clinically isolated β-lactamase producing strains were tested by the agar plate dilution method in accordance with the standard method of The Japanese Chemotherapy Society [Chemotherapy, Vol. 29, 76-79 (1981)]. A solution of a cephalosporinase producing strain stored by Episome Research Institute, prepared by incubating the strain in a sensitivity test broth (STB; product of Nissui K. K.) for 18 hours, was diluted with a fresh STB solution so that the solution contained 10⁶ cells per milliliter. The diluted solution was then inoculated as spots in a microplanter on a sensitivity disk agar-N (SDA; product of Nissui K. K.) containing a test compound. The disk agar was then incubated for 18 to 20 hours. The minimum inhibitory concentration was determined as a minimum concentration in which the test microorganism no longer grew after a 18 to 20-hour incubation.

Proteus vulgaris GN 76 = assay: as above; type: cell-based; conditions: Proteus vulgaris GN 76; cephalosporinase producing strain, SDA, 18 to 20 hours
Experimental: as §3

[12] = tested on: Escherichia coli No. 1501; assay: as above; type: cell-based; conditions: cephalosporinase producing strain, SDA, 18 to 20 hours
Experimental: as §3

[13] = tested on: Pseudomonas aeruginosa GN 10362; assay: as above; type: cell-based; conditions: cephalosporinase producing strain, SDA, 18 to 20 hours
Experimental: as §3

Serratia marcescens L-82 = assay: as above; type: cell-based; conditions: cephalosporinase producing strain, SDA, 18 to 20 hours
Experimental: as §3

[14] = tested on: Citrobactor freundii GN 346; assay: as above; type: cell-based; conditions: cephalosporinase producing strain, SDA, 18 to 20 hours
Experimental: as §3

Proteus morganii GN 5307 = assay: as above; type: cell-based; conditions: Proteus morganii GN 5307; cephalosporinase producing strain, SDA, 18 to 20 hours
Experimental: as §3

[15] = tested on: Serratia marcescens GN 10857; assay: as above; type: cell-based; conditions: Serratia marcescens GN 10857; cephalosporinase producing strain, SDA, 18 to 20 hours
Experimental: as §3

[16] = tested on: Enterobacter cloacae GN 5797; assay: as above; type: cell-based; conditions: cephalosporinase producing strain, SDA, 18 to 20 hours
Experimental: as §3

[17] = tested on: Providencia rettgeri GN 5284; assay: as above; type: cell-based; conditions: cephalosporinase producing strain, SDA, 18 to 20 hours
Experimental: as §3

Escherichia coli GN 5482 = assay: as above; type: cell-based; conditions: cephalosporinase producing strain, SDA, 18 to 20 hours
Experimental: as §3

Proteus morganii GN 5375 = assay: as above; type: cell-based; conditions: Morganella morganii, GN5375, cephalosporinase producing strain, SDA, 18 to 20 hours
Experimental: as §3

[18] = tested on: Pseudomonas aeruginosa GN 10367; assay: as above; type: cell-based; conditions: GN10367; Pseudomonas aeruginosa GN 10367; cephalosporinase producing strain, SDA, 18 to 20 hours; read-out: MIC
Experimental: as §3

[19] = tested on: Providencia rettgeri GN 4762; assay: as above; type: cell-based; conditions: Providencia rettgeri GN 4762; cephalosporinase producing strain, SDA, 18 to 20 hours
Experimental: as §3

[20] = tested on: Klebsiella oxytoca GN 10650; assay: as above; type: cell-based; conditions: Klebsiella oxytoca GN 10650; cephalosporinase producing strain, SDA, 18 to 20 hours
Experimental: as §3

[21] = tested on: Pseudomonas aeruginosa GN 918; assay: as above; type: cell-based; conditions: Pseudomonas aeruginosa, GN918, Pseudomonas aeruginosa GN 918; cephalosporinase producing strain, SDA, 18 to 20 hours
Experimental: as §3

[22] = tested on: Enterobacter cloacae GN 7467; assay: as above; type: cell-based; conditions: Enterobacter cloacae, GN7467, Enterobacter cloacae GN 7467; cephalosporinase producing strain, SDA, 18 to 20 hours
Experimental: as §3

Escherichia coli No. 96 = assay: as above; type: cell-based; conditions: cephalosporinase producing strain, SDA, 18 to 20 hours
Experimental: as §3

[23] = tested on: Pseudomonas cepacia GN 11164; assay: as above; type: cell-based; conditions: cephalosporinase producing strain, SDA, 18 to 20 hours
Experimental: as §3

Proteus vulgaris GN 4413 = assay: as above; type: cell-based; conditions: Proteus vulgaris GN 4413; cephalosporinase producing strain, SDA, 18 to 20 hours
Experimental: as §3

[24] = tested on: Citrobactor freundii GN 7391; assay: as above; type: cell-based; conditions: cephalosporinase producing strain, SDA, 18 to 20 hours
Experimental: as §3

Serratia marcescens L-65 = assay: as above; type: cell-based; conditions: Serratia marcescens L-65; cephalosporinase producing strain, SDA, 18 to 20 hours
Experimental: as §3

Proteus morganii GN 5407 = assay: as above; type: cell-based; conditions: Morganella morganii, GN5407, cephalosporinase producing strain, SDA, 18 to 20 hours
Experimental: as §3

[25] = tested on: Providencia rettgeri GN 4430; assay: as above; type: cell-based; conditions: cephalosporinase producing strain, SDA, 18 to 20 hours
Experimental: as §3

[26] = tested on: Enterobacter cloacae GN 7471; assay: as above; type: cell-based; conditions: cephalosporinase producing strain, SDA, 18 to 20 hours
Experimental: as §3

[27] = molecular target: T1, Swine Kidney Dehydropeptidase-I (DHP-I) (Sus scrofa, UniProt P22412); assay: Hydrolysis activity against DHP-I enzyme substrate by late assay; type: in vitro ADME; conditions: substrate concentration 100 µM, 37°C, 10 minutes
T1 construct: made soluble by treatment with butanol and purified by the ammonium sulfate fraction method, thereby producing DHP-I enzyme from a 75% ammonium sulfate fraction; from tissue; host or cells: swine kidney
Experimental: The swine kidney (8 kg) was homogenized and the enzyme protein was allowed to precipitate. After a connective lipid was removed with acetone, the resultant material was made soluble by treatment with butanol and purified by the ammonium sulfate fraction method, thereby producing DHP-I enzyme from a 75% ammonium sulfate fraction. The DHP-I enzyme was then adjusted to give an enzyme concentration of 25 mg/10 ml (phosphate buffer, pH 7.1), and divided into 1 ml portions. The portions were frozen and stored at -40°C or less until use. Glycyl dehydrophenylalanine (Gl-dh-Ph) and imipenem were employed as control compounds, and they were adjusted in situ each to give a concentration of 117 µM with the same sodium phosphate buffer solution. […] The solution was then incubated at 37°C for 10 minutes. The initial velocity of hydrolysis of the substrate was measured from a decrease in absorbency at a particular λmax of each of the substrates. A blank test was conducted in substantially the same manner as above by adding 0.2 ml of the sodium phosphate buffer solution (pH 7.1) to 1.2 ml of the above substrate.

T1 sequence (P22412 17-384): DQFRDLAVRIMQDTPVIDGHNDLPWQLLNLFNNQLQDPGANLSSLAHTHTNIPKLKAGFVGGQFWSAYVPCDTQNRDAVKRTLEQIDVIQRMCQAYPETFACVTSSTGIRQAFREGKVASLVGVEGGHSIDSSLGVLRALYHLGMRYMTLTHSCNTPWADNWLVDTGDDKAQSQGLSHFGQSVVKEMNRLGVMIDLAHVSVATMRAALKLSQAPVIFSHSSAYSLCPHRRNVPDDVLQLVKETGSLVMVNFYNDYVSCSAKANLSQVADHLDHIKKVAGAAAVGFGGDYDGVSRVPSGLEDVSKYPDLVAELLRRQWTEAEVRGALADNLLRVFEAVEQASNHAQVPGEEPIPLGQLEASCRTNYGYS

C[C@@H](O)[C@H]1C(=O)N2C(C(=O)[O-])=C(SCc3cs[n+](C)n3)[C@H](C)[C@H]12 [Crystalline Compd. (20), (1R,5S,6S)-2-[(2-methyl-1,2,3-thiadiazolium-4-yl)methyl]thio-6-[(R)-1-hydroxyethyl]-1-methyl-carbapenem-3-carboxylate]
concentration to inhibit the growth of all the test microorganisms [1]: 6.25 µg/mL | percent of strains inhibited at 3.13 µg/mL ([1]; Pseudomonas aeruginosa, read-out: test microorganisms whose growth is inhibited): ~99% | MIC (Salmonella typhi 901): 0.013 µg/mL (≈ 0.0366 µM) | MIC [2]: 0.78 µg/mL (≈ 2.19 µM) | MIC [3]: 0.2 µg/mL (≈ 0.563 µM) | MIC (Proteus vulgaris OX-19): 1.56 µg/mL (≈ 4.39 µM) | MIC [4]: 1.56 µg/mL (≈ 4.39 µM) | MIC [5]: 0.025 µg/mL (≈ 0.0703 µM) | MIC [6]: 0.39 µg/mL (≈ 1.1 µM) | MIC [7]: 0.2 µg/mL (≈ 0.563 µM) | MIC [8]: 3.13 µg/mL (≈ 8.81 µM) | MIC [9]: 0.78 µg/mL (≈ 2.19 µM) | MIC [10]: 0.39 µg/mL (≈ 1.1 µM) | MIC (Proteus vulgaris HX-19): 1.56 µg/mL (≈ 4.39 µM) | toxicity, observations for one week [11]: alive without any abnormal observations | MIC (Proteus vulgaris GN 7919): 0.78 µg/mL (≈ 2.19 µM) | MIC (Proteus vulgaris GN 76): 3.13 µg/mL (≈ 8.81 µM) | MIC [12]: 0.05 µg/mL (≈ 0.141 µM) | MIC [13]: 0.78 µg/mL (≈ 2.19 µM) | MIC (Serratia marcescens L-82): 0.2 µg/mL (≈ 0.563 µM) | MIC [14]: 0.78 µg/mL (≈ 2.19 µM) | MIC (Proteus morganii GN 5307): 0.78 µg/mL (≈ 2.19 µM) | MIC [15]: 3.13 µg/mL (≈ 8.81 µM) | MIC [16]: 0.1 µg/mL (≈ 0.281 µM) | MIC [17]: 0.39 µg/mL (≈ 1.1 µM) | MIC (Escherichia coli GN 5482): 0.05 µg/mL (≈ 0.141 µM) | MIC (Proteus morganii GN 5375): 1.56 µg/mL (≈ 4.39 µM) | MIC [18]: 3.13 µg/mL (≈ 8.81 µM) | MIC [19]: 0.2 µg/mL (≈ 0.563 µM) | MIC [20]: 0.2 µg/mL (≈ 0.563 µM) | MIC [21]: 1.56 µg/mL (≈ 4.39 µM) | MIC [22]: 1.56 µg/mL (≈ 4.39 µM) | MIC (Escherichia coli No. 96): 0.05 µg/mL (≈ 0.141 µM) | MIC [23]: 0.39 µg/mL (≈ 1.1 µM) | MIC (Proteus vulgaris GN 4413): 3.13 µg/mL (≈ 8.81 µM) | MIC [24]: 0.78 µg/mL (≈ 2.19 µM) | MIC (Serratia marcescens L-65): 0.39 µg/mL (≈ 1.1 µM) | MIC (Proteus morganii GN 5407): 1.56 µg/mL (≈ 4.39 µM) | MIC [25]: 0.39 µg/mL (≈ 1.1 µM) | MIC [26]: 0.1 µg/mL (≈ 0.281 µM)

NCC(=O)NC(=Cc1ccccc1)C(=O)O [Gl-dh-Ph, Glycyl dehydrophenylalanine]
initial velocity of hydrolysis [27]: 17.4 µM/min
